Laboratory results as given in patent US20210161131A1, “cis-p-Menthane-1,8-Di-secondary Amine Compounds as well as Their Preparation Methods and Application in Weed Control” (RESEARCH INSTITUTE OF FORESTRY NEW TECHNOLOGY, CHINESE …, priority 2019, published 2021).

Tested on: barnyard grass seeds
Experiment: Petri dish seed germination method: inhibition of root and stem growth of barnyard grass
Assay type: in vivo
Settings: 96 hours incubation
Description: (§1) Step 2: Accurately weigh 1 mmol cis-p-menthane-1,8-di-Schiff base compounds and cis-p-menthane-1,8-di-secondary amine compounds respectively, dissolve each of them with 0.25 mL DMF, and add a drop of Tween 80 in each resulted solution. After being fully dissolved, each solution is transferred to a 100 mL volumetric flask respectively and then diluted to the mark with distilled water to obtain a solution with a concentration of 10 mmol/L as the mother liquor. The two-fold dilution method is used to prepare diluted solutions with a series of concentrations (the concentrations of DMF and Tween 80 in the diluted solutions are the same as those in the mother liquor).
(§2) Barnyard grass seeds are placed in a 28° C. incubator and are soaked in an appropriate amount of distilled water for 12 hours there. After the clean water is filtered out, the seeds are then placed in the 28° C. incubator for 24 hours to germinate. Spread 2 pieces of filter paper in each of several Petri dishes, and place 10 barnyard grass seeds with the same size in each dish. Repeat each treatment for three times The dishes are divided into two groups: test dishes and control dishes. Add into each test dish 10 mL of the sample solution with the corresponding concentration of the target compound, and add into each control dish the same amount of the mixture of water, DMF and Tween 80 as the blank control. Add 10 seeds to each of the dishes (both test dishes and control dishes), place them in an artificial climate incubator, and incubate them for 96 hours under a temperature of 28° C., an illumination of 5000 1×, a photoperiod of day:night=16:8 and a relative humidity of 70-80%. The experimental data is processed and analyzed with DPS software to calculate the inhibition rate (y) of cis-p-menthane-1,8-di-secondary amine compounds on the root growth or stem growth of barnyard grass seeds.
Wherein, y is the inhibition rate of root growth or stem growth (%), x0 is the root length or stem length of the control, and x1 is the root length or stem length of the sample.
as §1, with “Accurately” for “Step 2: Accurately”, “cis-p-menthane-1,8-bis-(4-chlorophenyl)Schiff” for “cis-p-menthane-1,8-di-Schiff”, “base” for “base compounds”, “cis-p-menthane-1,8-bis-(4-chlorobenzyl)amine” for “cis-p-menthane-1,8-di-secondary amine compounds”, “(5 mmol/L, 2.5 mmol/L, 1.25 mmol/L, 0.625 mmol/L, 0.3125 mmol/L and 0.1563 mmol/L; the” for “(the”
as §2, with “placed in a 30° C. incubator” for “placed in the 28° C. incubator”, “in each Petri dish,” for “in each of several Petri dishes,”, “each Petri dish, and place” for “several Petri dishes, and place”, “with the above corresponding concentration” for “with the corresponding concentration”, “with DPS software.” for “with DPS software to calculate the inhibition rate (y) of cis-p-menthane-1,8-di-secondary amine compounds on the root growth or stem growth of barnyard grass seeds.”

Row | Structure (SMILES) | inhibition rate on the root growth of barnyard grass seeds (0.15625 mmol/L) [%] | inhibition rate on the stem growth of barnyard grass seeds (0.15625 mmol/L) [%] | inhibition rate on the root growth of barnyard grass seeds (0.3125 mmol/L) [%] | inhibition rate on the stem growth of barnyard grass seeds (0.3125 mmol/L) [%] | inhibition rate on the root growth of barnyard grass seeds (0.625 mmol/L) [%] | inhibition rate on the stem growth of barnyard grass seeds (0.625 mmol/L) [%] | inhibition rate on the root growth of barnyard grass seeds (1.25 mmol/L) [%] | inhibition rate on the stem growth of barnyard grass seeds (1.25 mmol/L) [%] | inhibition rate on the root growth of barnyard grass seeds (2.5 mmol/L) [%] | inhibition rate on the stem growth of barnyard grass seeds (2.5 mmol/L) [%] | inhibition rate on the root growth of barnyard grass seeds (5 mmol/L) [%] | inhibition rate on the stem growth of barnyard grass seeds (5 mmol/L) [%]
1 | CC1(NCc2ccc(Cl)cc2)CCC(C(C)(C)NCc2ccc(Cl)cc2)CC1 (stereo not drawn) [cis-p-menthane-1,8-bis-(4-chlorobenzyl)amine] | 31.4 | 35.7 | 57.1 | 41.6 | 87.3 | 65.8 | 90.8 | 63.4 | 91.6 | 68.0 | 96.7 | 75.1
2 | CC(C)(N=Cc1ccc(Cl)cc1)[C@H]1CC[C@@](C)(N=Cc2ccc(Cl)cc2)CC1 [cis-p-menthane-1,8-bis-(4-chlorophenyl) Schiff base, reference compound] |  |  | −5.0 | 1.4 | 24.3 | 4.6 | 76.7 | 23.9 | 49.9 | 22.8 | 92.4 | 20.9
3 | CN(C)c1ccc(C=NC(C)(C)[C@H]2CC[C@@](C)(N=Cc3ccc(N(C)C)cc3)CC2)cc1 [cis-p-menthane-1,8-bis-(4-dimethylaminobenzyl)Schiff base, reference compound] |  |  | 9.7 | −12.2 | 45.4 | 9.5 | 49.8 | 6.9 | 59.3 | 1.9 | 67.1 | 13.2
4 | CN(C)c1ccc(CNC2(C)CCC(C(C)(C)NCc3ccc(N(C)C)cc3)CC2)cc1 (stereo not drawn) [cis-p-menthane-1,8-bis-(4-dimethylaminobenzyl)amine] | 14.4 | 19.1 | 31.0 | 19.6 | 21.0 | 24.9 | 48.1 | 22.3 | 70.3 | 34.3 | 89.3 | 56.6
5 | CC1(N=Cc2ccc(F)cc2)CCC(C(C)(C)N=Cc2ccc(F)cc2)CC1 (stereo not drawn) [cis-p-menthane-1,8-bis-(4-fluorobenzyl)Schiff base, reference compound] |  |  | 15.7 | −13.7 | 72.8 | 2.7 | 85.7 | 23.9 | 82.9 | 20.1 | 79.7 | 32.3
6 | CC1(NCc2ccc(F)cc2)CCC(C(C)(C)NCc2ccc(F)cc2)CC1 (stereo not drawn) [cis-p-menthane-1,8-bis-(4-fluorobenzyl)amine] | 38.2 | 7.2 | 48.3 | 10.5 | 78.6 | 58.3 | 78.6 | 75.1 | 98.6 | 85.9 | 100.0 | 100.0
7 | COc1ccc(C=NC2(C)CCC(C(C)(C)N=Cc3ccc(OC)cc3)CC2)cc1 (stereo not drawn) [cis-p-menthane-1,8-bis-(4-methoxybenzyl)Schiff base, reference compound] |  |  | 70.7 | 15.4 | 66.7 | 6.9 | 55.3 | 4 | 28.1 | 8.0 | 7.6 | 2.1
8 | COc1ccc(CNC2(C)CCC(C(C)(C)NCc3ccc(OC)cc3)CC2)cc1 (stereo not drawn) [cis-p-menthane-1,8-bis-(4-methoxybenzyl)amine] | 37.8 | 9.9 | 42.2 | 27.9 | 88.7 | 72.5 | 95.1 | 70.6 | 96.5 | 84.4 | 100.0 | 84.3
9 | Cc1ccc(CNC(C)(C)[C@H]2CC[C@@](C)(NCc3ccc(C)cc3)CC2)cc1 [cis-p-menthane-1,8-bis-(4-methylbenzyl)amine] | 42.5 | 42.1 | 86.6 | 64.6 | 89.6 | 65.9 | 91.9 | 74.7 | 95.2 | 87.1 | 100.0 | 93.3
10 | CSc1ccc(CNC2(C)CCC(C(C)(C)NCc3ccc(SC)cc3)CC2)cc1 (stereo not drawn) [cis-p-menthane-1,8-bis-(4-methylthiobenzyl)amine] | 32.0 | 22.8 | 58.1 | 66.0 | 77.2 | 66.2 | 90.8 | 83.4 | 96.0 | 77.5 | 98.5 | 85.1
